Like-named read-outs stand apart in the source and are kept apart here. Bridge positions count the residues as written; N and C are the ends. Square brackets hold non-standard residues; d marks the D form. Peptide text beside a SMILES is read from it. * marks the point of attachment. Piperazin2one(3S-Bu,6R-CO) = CCCC[C@@H]1NC[C@H](C(=O)*)NC1=O; X2 = N=C(N)NCCC[C@@H]1C(=O)N[C@@H](C(N)=O)CN1*; X1 = N=C(N)NCCC[C@H]1C(=O)N[C@@H](C(N)=O)CN1*; dNle = CCCC[C@@H](N)C(=O)O; Heptanoyl = CCCCCCC(=O)*; Nle = CCCC[C@H](N)C(=O)O; Orn = NCCC[C@H](N)C(=O)O
Columns and labels:
[1] = target: T1, NEP (neutral endopeptidase) (Homo sapiens, UniProt P08473); assay: hNEP resistance assay (digestion by neutral endopeptidase); format: in vitro ADME; details: pH 7.4
T1 construct: purchased R&D Systems, Minneapolis, Minn; 1182-ZN
T1 sequence (P08473 52-750 limits assumed): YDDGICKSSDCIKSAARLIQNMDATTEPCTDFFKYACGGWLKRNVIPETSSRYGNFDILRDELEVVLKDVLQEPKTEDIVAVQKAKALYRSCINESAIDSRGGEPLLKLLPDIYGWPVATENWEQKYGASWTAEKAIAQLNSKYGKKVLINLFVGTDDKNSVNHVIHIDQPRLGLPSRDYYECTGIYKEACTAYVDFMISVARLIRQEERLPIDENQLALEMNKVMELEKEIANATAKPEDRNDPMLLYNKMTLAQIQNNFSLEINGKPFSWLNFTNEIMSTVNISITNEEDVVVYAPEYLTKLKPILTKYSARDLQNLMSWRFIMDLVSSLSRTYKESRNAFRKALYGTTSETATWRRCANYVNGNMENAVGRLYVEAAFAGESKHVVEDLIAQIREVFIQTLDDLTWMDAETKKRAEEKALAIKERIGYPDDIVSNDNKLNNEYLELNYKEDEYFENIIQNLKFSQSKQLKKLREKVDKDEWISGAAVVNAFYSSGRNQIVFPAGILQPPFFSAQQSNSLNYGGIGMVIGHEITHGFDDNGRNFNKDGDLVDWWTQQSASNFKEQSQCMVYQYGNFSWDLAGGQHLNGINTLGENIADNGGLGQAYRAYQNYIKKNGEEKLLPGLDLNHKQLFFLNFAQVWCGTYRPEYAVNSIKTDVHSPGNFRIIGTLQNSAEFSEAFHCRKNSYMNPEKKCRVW
Method: NEP resistance of various constructs of the invention was evaluated using the following experimental procedure. All constructs were diluted in 0.1 M Tris-HCL buffer (pH 7.4) to 100 μM. 40 μL of diluted constructs were added to each tube and all tubes were kept on ice. 40 μL of diluted NEP, either human recombinant NEP (R&D Systems, Minneapolis, Minn., catalogue #1182-ZN) at 8 ng/μL or mouse NEP (R&D Systems, catalog #1126-ZN) at 2.5 ng/μL, was added to each tube. The tubes were mixed gently and spun. […] At the end of the incubation time, the reaction was stopped by adding 5 μL of 10% TFA. […] The extent to which NEP was active against the constructs was then analyzed by HPLC and/or LC/MS. Data analysis included determining the percent of remaining starting material, i.e., undigested peptide construct, and the percent and sequence of each proteolytic fragment.

[2] = rat, in vivo, iv
[3] = rat, in vivo, sc
[4] = human, isolated enzyme neprilysin
[5] = human recombinant NEP (neutral endopeptidase), incubation with human recombinant NEP at 37° C., 1 h, read-out: hNEP % of Starting Material 1 h
[6] = human recombinant NEP (neutral endopeptidase), incubation with human recombinant NEP at 37° C., 2 h, read-out: hNEP % of Starting Material 2 h

Compound	remaining at 1 h, 50 µM [1, 4] [%]	remaining at 2 h, 50 µM [1, 4] [%]	clearance [2] [mL/min/kg]	AUC ([2]; 0.3 mg/kg) [µM·h]	Vd ([2]; 0.3 mg/kg) [L/kg]	clearance ([2]; 0.3 mg/kg) [mL/min/kg]	half-life ([2]; 0.3 mg/kg) [min]	AUC ([2]; 2 mg/kg) [µM·h]	Vd ([2]; 2 mg/kg) [L/kg]	clearance ([2]; 2 mg/kg) [mL/min/kg]	half-life ([2]; 2 mg/kg) [min]	further results
CCCC[C@@H]1NC[C@H](C(=O)N[C@H]2CSSC[C@@H](C(=O)N[C@@H](Cc3ccc(O)cc3)C(=O)N3C[C@H](C(N)=O)NC(=O)[C@@H]3CCCNC(=N)N)NC(=O)[C@H](CO)NC(=O)[C@H]([C@@H](C)CC)NC(=O)[C@H](CCCNC(=N)N)NC(=O)[C@H](CC(=O)O)NC(=O)[C@H](CCCC)NC(=O)[C@H](CCCNC(=N)N)NC(=O)CNC(=O)CNC(=O)[C@H](Cc3ccccc3)NC(=O)[C@H](Cc3c[nH]cn3)NC2=O)NC1=O [1-18] ({Piperazin2one(3S-Bu,6R-CO)}-CHFGGR[Nle]DRISCY-X1; disulfide 1-12)	91	82	55	0.061	0.4	43	12	0.263	0.7	72	12	AUC ([3]; 1 mg/kg): 0.04 µM·h; Cmax ([3]; 1 mg/kg): 85 nM; Tmax ([3]; 1 mg/kg): 6 min; half-life ([3]; 1 mg/kg): 12 min; AUC ([3]; 5 mg/kg): 0.255 µM·h; Cmax ([3]; 5 mg/kg): 131 nM; Tmax ([3]; 5 mg/kg): 12 min; half-life ([3]; 5 mg/kg): 96 min
CCCC[C@@H]1NC[C@H](C(=O)N[C@H]2CSSC[C@@H](C(=O)N[C@@H](Cc3ccc(O)cc3)C(=O)N3C[C@H](C(N)=O)NC(=O)[C@@H]3CCCNC(=N)N)NC(=O)[C@H](CO)NC(=O)[C@H]([C@@H](C)CC)NC(=O)[C@H](CCCN)NC(=O)[C@H](CC(=O)O)NC(=O)[C@H](CCCC)NC(=O)[C@H](CCCNC(=N)N)NC(=O)CNC(=O)CNC(=O)[C@H](Cc3ccccc3)NC(=O)[C@H](Cc3c[nH]cn3)NC2=O)NC1=O [1-55] ({Piperazin2one(3S-Bu,6R-CO)}-CHFGGR[Nle]D[Orn]ISCY-X1; disulfide 1-12)	–	–	21	0.116	0.2	15	12	0.828	0.3	21	18	remaining at 1 h, 50 µM [1, 5]: 83%; remaining at 2 h, 50 µM [1, 6]: 70%; AUC ([3]; 5 mg/kg): 0.232 µM·h; Cmax ([3]; 5 mg/kg): 250 nM; Tmax ([3]; 5 mg/kg): 18 min; half-life ([3]; 5 mg/kg): 30 min
CCCCCCC(=O)N[C@H]1CSSC[C@@H](C(=O)N[C@@H](Cc2ccc(O)cc2)C(=O)N2C[C@H](C(N)=O)NC(=O)[C@@H]2CCCNC(=N)N)NC(=O)[C@H](CO)NC(=O)[C@H]([C@@H](C)CC)NC(=O)[C@H](CCCNC(=N)N)NC(=O)[C@H](CC(=O)O)NC(=O)[C@H](CCCC)NC(=O)[C@H](CCCNC(=N)N)NC(=O)CNC(=O)CNC(=O)[C@H](Cc2ccccc2)NC(=O)[C@H](Cc2c[nH]cn2)NC1=O [1-63] (Heptanoyl-CHFGGR[Nle]DRISCY-X1; disulfide 1-12)	67	44	203	0.033	5.8	546	18	0.067	4.6	290	18	AUC ([3]; 1 mg/kg): 0.007 µM·h; Cmax ([3]; 1 mg/kg): 26 nM; Tmax ([3]; 1 mg/kg): 6 min; half-life ([3]; 1 mg/kg): 12 min
CCCC[C@@H]1NC[C@H](C(=O)N[C@H]2CSSC[C@@H](C(=O)N[C@@H](Cc3ccc(O)cc3)C(=O)N3C[C@H](C(N)=O)NC(=O)[C@H]3CCCNC(=N)N)NC(=O)[C@H](CO)NC(=O)[C@H]([C@@H](C)CC)NC(=O)[C@@H](CCCNC(=N)N)NC(=O)[C@H](CC(=O)O)NC(=O)[C@H](CCCC)NC(=O)[C@@H](CCCNC(=N)N)NC(=O)CNC(=O)CNC(=O)[C@H](Cc3ccccc3)NC(=O)[C@H](Cc3c[nH]cn3)NC2=O)NC1=O [1-118] ({Piperazin2one(3S-Bu,6R-CO)}-CHFGG[dR][Nle]D[dR]ISCY-X2; disulfide 1-12)	96	92	10	–	–	–	–	–	–	–	–	–
CCCCCCC(=O)N[C@H]1CSSC[C@@H](C(=O)N[C@@H](Cc2ccc(O)cc2)C(=O)N2C[C@H](C(N)=O)NC(=O)[C@@H]2CCCNC(=N)N)NC(=O)[C@H](CO)NC(=O)[C@H]([C@@H](C)CC)NC(=O)[C@H](CCCNC(=N)N)NC(=O)[C@H](CC(=O)O)NC(=O)[C@H](CCCC)NC(=O)[C@H](CCCNC(=N)N)NC(=O)CNC(=O)[C@@H](C)NC(=O)[C@H](Cc2ccccc2)NC(=O)[C@H](Cc2c[nH]cn2)NC1=O [1-130] (Heptanoyl-CHF[dA]GR[Nle]DRISCY-X1; disulfide 1-12)	–	–	92	–	–	–	–	–	–	–	–	remaining at 1 h, 50 µM ([1]; isolated enzyme neprilysin, incubation with human recombinant NEP at 37° C., 1 h, read-out: hNEP % of Starting Material 1 h): 75%; remaining at 2 h, 50 µM ([1]; isolated enzyme neprilysin, incubation with human recombinant NEP at 37° C., 2 h, read-out: hNEP % of Starting Material 2 h): 56%
CCCCCCC(=O)N[C@H]1CSSC[C@@H](C(=O)N[C@@H](Cc2ccc(O)cc2)C(=O)N2C[C@H](C(N)=O)NC(=O)[C@@H]2CCCNC(=N)N)NC(=O)[C@H](CO)NC(=O)[C@H]([C@@H](C)CC)NC(=O)[C@H](CCCNC(=N)N)NC(=O)[C@H](CC(=O)O)NC(=O)[C@@H](CCCC)NC(=O)[C@H](CCCNC(=N)N)NC(=O)CNC(=O)CNC(=O)[C@H](Cc2ccccc2)NC(=O)[C@H](Cc2c[nH]cn2)NC1=O [1-131] (Heptanoyl-CHFGGR[dNle]DRISCY-X1; disulfide 1-12)	87	70	21	–	–	–	–	–	–	–	–	–
CCCC[C@@H]1NC[C@H](C(=O)N[C@H]2CSSC[C@@H](C(=O)N[C@@H](Cc3ccc(O)cc3)C(=O)N3C[C@H](C(N)=O)NC(=O)[C@H]3CCCNC(=N)N)NC(=O)[C@H](CO)NC(=O)[C@H]([C@@H](C)CC)NC(=O)[C@H](CCCNC(=N)N)NC(=O)[C@H](CC(=O)O)NC(=O)[C@@H](CCCC)NC(=O)[C@H](CCCNC(=N)N)NC(=O)CNC(=O)[C@@H](C)NC(=O)[C@H](Cc3ccccc3)NC(=O)[C@H](Cc3c[nH]cn3)NC2=O)NC1=O [1-133] ({Piperazin2one(3S-Bu,6R-CO)}-CHF[dA]GR[dNle]DRISCY-X2; disulfide 1-12)	–	–	12	–	–	–	–	–	–	–	–	remaining at 1 h, 50 µM [1, 5]: 96%; remaining at 2 h, 50 µM [1, 6]: 93%
